Experimental findings from patent US20150024955A1, “Methods of Identifying Modulators of Dephosphorylation of Histone Deacetylase” (THE J. DAVID GLADSTONE INSTITUTES, priority 2006, published 2015) are described below.

The subject of assay [1] is HDAC7 (Ser155, Ser318, Ser448 phosphorylation). The assay can be described thus: HDAC7 phosphorylation by Western blot with antiphospho-HDAC7 antisera in DO11.10-HDAC7-Flag cells. Format: cell-based, human. How it is done:
DO11.10-HDAC7-Flag cells were untreated or treated with either PMA or anti CD3 antibody for the indicated times. Total cellular extracts were prepared in 20 mM Hepes (pH 7.5), 10 mM EGTA, 22.5 mM MgCl2, 1% NP-40, 2 mM orthovanadate, 1 mM dithiothreitol, and 0.5 mM phenyl-methyl sulfonyl fluoride supplemented with protease inhibitors, and subjected to Western blot analysis.
Antibodies against mouse HDAC7 phosphorylated at serine residues 178, 344 and 479 were generated (Sigma Genosys, INC., Houston Tex. 77216-1508, USA). Briefly, rabbits were immunized with KLH-conjugated peptides. The phosphopeptides used to generate the phosphor-specific antibodies were FPLRTV[pSer]EPNLKL for P-Ser178, RPLNRTR[pSer]EPLPPS for P-Ser344 and RPLSRTQ[pSer]SPAAPV for P-Ser479. [pSer] indicates the phosphate group on the conserved serine residues. HDAC7 phospho specific antibodies were purified from crude rabbit serum by double affinity purification with nonphosphorylated and phosphorylated peptide. The corresponding serine residues can be found in human HDAC7 at amino acid positions 155, 318, and 448, respectively.
Using these antisera, the state of phosphorylation of HDAC7 following PMA treatment was assessed. […] Phosphatase treatment of immunoprecipitated HDAC7 abolished the reactivity of the different phosphor-HDAC7 antibodies confirming their specificity for phosphorylated HDAC7 (FIG. 6A).
To test the possibility that HDAC7 became dephosphorylated by a phosphatase, cells were stimulated with PMA followed by the addition of okadaic acid, a phosphatase inhibitor, for the rest of the time course. Consistent with the hypothesis that HDAC7 is dephosphorylated by a phosphatase, okadaic acid treatment led to persistent phosphorylation of HDAC7 at each site up to 24 h (FIG. 6B).
To further probe the role of myosin phosphatase in the dephosphorylation of HDAC7 in vivo, small interfering RNAs (siRNAs) specific for PP1β and MYPT1 were introduced into DO11.10 cells expressing HDAC7. With an siRNA control (siCo), HDAC7 was transiently phosphorylated in response to PMA, with a peak at 2 h, and rapidly dephosphorylated thereafter (FIG. 11B, left panel). […] Further, HDAC7 remained phosphorylated up to 8 h after PMA stimulation (FIG. 11B, right panel).

Another assay deals with HDAC7-GFP. The assay can be described thus: HDAC7-GFP subcellular localization by immunofluorescence microscopy in DO11.10 cells. Format: cell-based. How it is done: DO11.10 cells (5×10^6) were nucleofected with an HDAC7-GFP expression vector together with either siRNA control or siRNAs for PP1β and MYPT1. Cells ([…]) were seeded onto poly-L-lysine-coated coverslips 12 h after nucleofection and allowed to attach for 12 h. Cells were stimulated with 10 ng/ml PMA. HDAC7 was localized by immunofluorescence microscopy with a confocal fluorescence microscope (Olympus BX60, Bio-Rad).
To determine whether the changes in HDAC7 phosphorylation affected the subcellular localization of the protein, the fate of an HDAC7-GFP fusion protein in response to PMA was followed. […] The subcellular localization of HDAC7 also closely paralleled serine 155, serine 318, and serine 448 phosphorylation. While resting cells […] nuclear exclusion of HDAC7, more than 75% of activated cells excluded HDAC7 from the nucleus at 2 hours after stimulation (FIG. 7A). However, this exclusion was transient and HDAC7 progressively returned to the nucleus over the next few hours (FIGS. 7A, 7B). Significant reimport of HDAC7-GFP into the nucleus occurred at 4 h after PMA treatment, a time course that paralleled HDAC7 dephosphorylation (FIGS. 7A, 7B). […] Phosphatases have been predicted to regulate the nucleo-cytoplasmic shuttling of other class IIa HDAC, such as HDAC4, 5, and 9 for some time but have not been identified so far. […]

The next assay concerns Nur77. The assay can be described thus: Nur77 expression by Western blot in DO11.10 cells. The following applies: after PMA treatment.

Where only a bound is given, the exact number is not on record here.

Protocol for Nur77: SDS-PAGE and Western blot analysis were performed according to standard procedures. Western blots were developed with the ECL detection kit (Amersham Pharmacia Biotech, Piscataway, N.J.).

Turning to `CCCCCCCCCCCCCC(=O)O[C@@H]1[C@@H](C)[C@@]2(O)[C@@H](C=C(CO)C[C@]3(O)C(=O)C(C)=C[C@@H]23)[C@@H]2C(C)(C)[C@]12OC(C)=O` [PMA], the “HDAC7 phosphorylation at each serine after treatment” value in assay [1] (DO11.10 stably expressing HDAC7-Flag, Western blot of immunoprecipitated HDAC7) is listed as “increased HDAC7 phosphorylation at each serine”. In addition, in assay [1] (all three serine residues, total HDAC7 content unchanged), the “start of progressive decrease in HDAC7 phosphorylation after treatment” value was determined as 4 h. The “time of maximum (full) HDAC7 phosphorylation after stimulation” value in assay [1] (time course, DO11.10-HDAC7-Flag cells) lay in the range of 1 to 2 h. The “percentage of cells excluding HDAC7 from the nucleus” value in the assay with HDAC7-GFP (2 hours after stimulation) is given as “more than 75%”. Further, the “percentage of cells showing nuclear exclusion of HDAC7” value in the assay on HDAC7-GFP (24 hours after stimulation) was < 20%. The “time of peak Nur77 induction” value in the assay with Nur77 is 2 h.

`C=C1[C@@H](O)[C@@H]2O[C@]3(CC[C@H](/C=C/[C@@H](C)[C@@H]4CC(C)=C[C@@]5(O[C@H](C[C@@](C)(O)C(=O)O)CC[C@H]5O)O4)O3)CC[C@H]2O[C@@H]1[C@@H](O)C[C@H](C)[C@H]1O[C@@]2(CCCCO2)CC[C@H]1C` [okadaic acid]: the “time up to which HDAC7 remained phosphorylated after PMA stimulation” value in assay [1] (agent applied together with PMA stimulation, DO11.10-HDAC7-Flag cells) is “up to 24 h”.
